Test results from paper PMC6479817, “In Vitro and In Situ Characterization of the Intestinal Absorption of Capilliposide B and Capilliposide C from Lysimachia capillipes Hemsl” (Molecules, 2019).

Tests used:
caco-2 cells = test: MTT colorimetric assay of caco-2 cell viability; assay type: cell-based, human; conditions: 24 h; for effect on cell growth (MTT): concentration less than 40 μg/mL; for effect on cell viability (MTT): concentration over 40 μg/mL
Protocol: The effects of CAPs on caco-2 cell viability were checked by 3-(4,5-dimethyl-2-thiazolyl)-2,5-diphenyl-2-H-tetrazolium bromide (MTT) colorimetric assay, which is adapted to analyze cell proliferation and drug cytotoxicity. […] In brief, caco-2 cells were seeded at 4 × 10^3 cells/well into 96-well culture plates and were incubated at 37 °C for 24 h before the assay. The cells were treated with different concentrations (0, 10, 20, 40, 80, 120, 160 and 240 μg/mL) of CAPs. After 24 h of incubation, 20 µL of MTT (5 mg/mL) was added to each well and the cells were incubated for another 4 h. After removing the culture medium, 100 µL of dimethyl sulfoxide was added to dissolve the contents in the plate. Then, the absorbance was measured at 570 and 630 nm (reference wavelength) using a microplate reader (Multiskan MK3; Thermo Fisher Scientific, Waltham, MA, USA).
Figure S2: Capilliposides (CAPs) inhibited the proliferation of caco-2 cells. Caco-2 cells were treated for 24 h with different concentrations (0, 10, 20, 40, 80, 120, 160 and 240 ug/mL) of CAPs. p < 0.05(*), comparison with the group of 0 ug/mL. All the results are expressed as mean ± S.D. (n=3).

caco-2 cell monolayer = test: Transport (permeability) across caco-2 cell monolayer, bidirectional, with and without inhibitors; assay type: in vitro ADME, human
Protocol: Caco-2 cells were routinely cultured in high glucose Dulbecco’s modified Eagle’s medium (DMEM) containing 10% fetal bovine serum (FBS), 1% nonessential amino acids, and 1% penicillin/streptomycin. Cells were kept at 37 °C in a 90% relative humidity atmosphere containing 5% CO2. Cells were seeded onto transwells purchased from Corning Costar Co. (New York, NY, USA) on 12-well plates for transport studies and uptake studies at 5 × 10^4 cells per insert. Cells were grown for 20 days. […] DMEM was removed and the monolayer was washed with Hank’s Balanced Salt Solution (HBSS). The blank HBSS was replaced by 0.4 mL of HBSS containing 40, 20 and 10 μg/mL of drug on the apical (AP) side and 2.1 mL of HBSS on the basolateral (BL) side. In the AP-BL direction studies, 0.4 mL of HBSS containing 40 μg/mL drug and P-gp inhibitor (53 μg/mL verapamil); MRP2 inhibitor (17.9 μg/mL indomethacin); or the co-inhibitor of P-gp, MRP2 and CYP3A4 (10 μg/mL cyclosporin A) were added to the AP side; 2.1 mL of HBSS was added to the BL side. In the BL-AP direction studies, 0.4 mL of HBSS containing 40 μg/mL drug and different inhibitors were added to the BL side, and 2.1 mL of HBSS was added to AP side. Samples (0.4 mL) were taken from the BL or AP side after 45, 60 and 90 min incubation at 37 °C. An additional 0.4 mL of HBSS was added at the same time. The concentrations of samples were analyzed by LC-MS. […] Linear regression was carried out to obtain the steady-state appearance rate of the drug on the receiver side.

[1] = test system: intestinal segment (duodenum, jejunum, ileum); assay type: in vivo; conditions: rat; for change of Peff and Ka values at higher drug concentration (80 μg/mL) / change of Peff and Ka values between 20 and 50 μg/mL / increase of Peff with indomethacin / increase of intestinal transport with verapamil / order of Peff and Ka values in three intestinal segments: in vivo
Protocol: Male Sprague-Dawley (SD) rats (280 ± 30 g) were supplied by the Laboratory Animal Center, Zhejiang Chinese Medical University (Zhejiang, China). All animals were fasted overnight (12-18 h) with free access to water before experiments. All experiments were performed in accordance with the guidelines for the care and use of animals as established by the Laboratory Animal Centre, Zhejiang Chinese Medical University (Zhejiang, China) (approval number: ACXK20150016). The perfusion experiment was performed as previously reported. In brief, rats were fasted overnight but permitted to drink water freely the day before the experiments. After being anesthetized, the rats were placed on the surface of a thermostatic device and maintained at 37 °C. An incision of approximately 3 cm was made along the midline of the abdominal cavity to expose the contents of the abdomen. […] Then the incision was made at both sides of the segment. The intestinal contents were rinsed with saline preheated at 37 °C, drained with air, and connected to the perfusion system with the catheter. One-hundred […] of pre-prepared perfusate was taken and preheated at 37 °C. The perfusion was started at a circulation speed of 1.0 mL/min for 10 min. […] Samples were collected in glass tubes (2 mL/per) at 10-min intervals for 90 min. […] The rest of the samples were stored at -20 °C for further studies.

[2] = design: method as in PMID 24313264; conditions: cited from earlier work
[3] = Stability in Krebsringer buffer (K-R buffer) at different pH values; assay type: physicochemical; conditions: pH 5.0, pH 6.55, pH 7.43
Text: The SPIP model was used to further explore the intestinal permeability features of CAPB and CAPC in rats. Firstly, we determined the stability of CAPB and CAPC in the Krebsringer buffer (K-R buffer) across different pH values. […] In other words, CAPB and CAPC were stable in a weakly acidic environment. Because the pH of intestinal juice was close to 6.55, we used a K-R buffer at pH 6.55 as the perfusion solution.
Figure 4 The characterization of the intestinal permeability of capilliposide B (CAPB) and capilliposide C (CAPC) in single-pass intestinal perfusion (SPIP) model. The stability of CAPB and CAPC were measured at different pH values (pH 5, pH 6.55, and pH 7.34, respectively) (A). The absorption rate constants (ka, s^−1) values (B) and effective permeability (Peff, cm/s) values (C) for CAPB and CAPC at different initial drug concentrations (20 μg/mL, 50 μg/mL, and 80 μg/mL, respectively). p < 0.05 (*) compared with the group at 80 μg/mL. The Ka values (D) and Peff values (E) of CAPB and CAPC obtained from the duodenum, jejunum, and ileum in SPIP models. p < 0.05 (*) compared with the duodenum. All the results are expressed as mean ± S.D. (n = 3).

Compound: CC1(C)C[C@H](O[C@@H]2O[C@H](CO)[C@@H](O)[C@H](O)[C@H]2O)[C@@]23[C@H](O)C[C@]4(C)[C@@](CC[C@@H]5[C@@]6(C)CC[C@H](O[C@@H]7OC[C@H](O[C@@H]8O[C@H](CO)[C@@H](O)[C@H](O)[C@H]8O[C@@H]8OC[C@@H](O)[C@H](O)[C@H]8O)[C@H](O)[C@H]7O[C@@H]7O[C@H](CO)[C@@H](O)[C@H](O)[C@H]7O)C(C)(C)[C@@H]6CC[C@]54C)(O[C@@H]2O)[C@@H]3C1 [CAPC, capilliposide C]
- effect on cell growth (MTT) (caco-2 cells): did not inhibit cell growth significantly
- effect on cell viability (MTT) (caco-2 cells): significantly decreased cell viability
- Papp (caco-2 cell monolayer): less than 2 × 10^−6 cm/s
- Papp (BA)/Papp (AB) (efflux ratio, ER) (caco-2 cell monolayer): 1.0-1.5
- Papp at high and medium vs lower concentration (caco-2 cell monolayer): significant increase in permeability
- Papp over incubation time (caco-2 cell monolayer): upward trend over time
- change of permeability in the presence of cyclosporin A (caco-2 cell monolayer): only a small increase
- change of permeability with cyclosporin A [1]: increased slightly
- change of permeability with ketoconazole vs alone [1]: minimal alteration of permeability
- effective permeability (Peff) [1]: less than 0.2 × 10^−4 cm/s
- change of Peff and Ka values at higher drug concentration (80 μg/mL) [1]: significant decrease
- change of Peff and Ka values between 20 and 50 μg/mL [1]: slight increase
- increase of Peff with indomethacin [1]: 2 fold
- increase of intestinal transport with verapamil [1]: 1.5 fold
- order of Peff and Ka values in three intestinal segments [1]: followed the same pattern as CAPB
- bioavailability and tissue exposure after oral administration [2]: poor bioavailability and low exposure in tissues
- stability in K-R buffer across pH values [3]: more stable at pH 5.0 and pH 6.55 than pH 7.43

Compound: CCCCCC(=O)O[C@H]1CC(C)(C)C[C@@H]2[C@@]13[C@H](O)C[C@]1(C)[C@@]2(CC[C@@H]2[C@@]4(C)CC[C@H](O[C@@H]5OC[C@H](O[C@@H]6O[C@H](CO)[C@@H](O)[C@H](O)[C@H]6O[C@@H]6OC[C@@H](O)[C@H](O)[C@H]6O)[C@H](O)[C@H]5O[C@@H]5O[C@H](CO)[C@@H](O)[C@H](O)[C@H]5O)C(C)(C)[C@@H]4CC[C@]21C)O[C@H]3O [CAPB, capilliposide B]
- effect on cell growth (MTT) (caco-2 cells): did not inhibit cell growth significantly
- effect on cell viability (MTT) (caco-2 cells): significantly decreased cell viability
- Papp (caco-2 cell monolayer): less than 2 × 10^−6 cm/s
- Papp (BA)/Papp (AB) (efflux ratio, ER) (caco-2 cell monolayer): 1.0-1.5
- Papp at high and medium vs lower concentration (caco-2 cell monolayer): significant increase in permeability
- Papp over incubation time (caco-2 cell monolayer): upward trend over time
- change of permeability in the presence of cyclosporin A (caco-2 cell monolayer): 10 fold
- change of permeability with cyclosporin A [1]: increased around two-fold
- change of permeability with ketoconazole vs alone [1]: two-fold higher permeability
- effective permeability (Peff) [1]: less than 0.2 × 10^−4 cm/s
- change of Peff and Ka values at higher drug concentration (80 μg/mL) [1]: significant increase
- change of Peff and Ka values between 20 and 50 μg/mL [1]: slight decline
- increase of Peff with indomethacin [1]: 4.2 fold
- increase of intestinal transport with verapamil [1]: 1.5 fold
- order of Peff and Ka values in three intestinal segments [1]: duodenum > jejunum > ileum
- bioavailability and tissue exposure after oral administration [2]: poor bioavailability and low exposure in tissues
- stability in K-R buffer across pH values [3]: more stable at pH 5.0 and pH 6.55 than pH 7.43
